The results in this text go back to PMC9544171, “Glucose‐dependent insulinotropic polypeptide receptor antagonist treatment causes a reduction in weight gain in ovariectomised high fat diet‐fed mice” (British Journal of Pharmacology, 2022).

SMILES strings stand for the structures. pIC50: −log10 of the molar value. Where a SMILES comes first, the peptide text is derived from it. The star is where a group is joined. C16 diacid = O=C(O)CCCCCCCCCCCCCCC(=O)*

The target in one assay is T1, human GIP receptor (Homo sapiens, UniProt P48546).
T1 construct: host or cells: COS-7
T1 sequence (P48546 22-466): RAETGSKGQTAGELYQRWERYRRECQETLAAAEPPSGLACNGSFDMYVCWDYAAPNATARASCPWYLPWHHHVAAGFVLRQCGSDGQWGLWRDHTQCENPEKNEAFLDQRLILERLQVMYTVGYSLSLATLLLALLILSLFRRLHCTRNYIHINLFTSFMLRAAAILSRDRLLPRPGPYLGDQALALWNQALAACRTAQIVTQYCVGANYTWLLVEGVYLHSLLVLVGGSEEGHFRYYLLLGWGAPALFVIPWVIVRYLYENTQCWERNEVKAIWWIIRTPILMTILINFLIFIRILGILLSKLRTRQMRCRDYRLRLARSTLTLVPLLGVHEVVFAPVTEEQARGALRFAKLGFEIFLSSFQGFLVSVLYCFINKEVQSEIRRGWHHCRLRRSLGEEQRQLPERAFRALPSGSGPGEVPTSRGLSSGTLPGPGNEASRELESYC
Put plainly: cAMP accumulation, antagonism of human GIP(1‐42) in transfected COS‐7 cells. Type of assay: cell-based. Particulars: COS‐7 transiently transfected with human GIPR; 10 min preincubation with antagonist, then human GIP(1‐42) at 50%–80% of Emax for 20 min; HitHunter cAMP; Hill slope −1.0; n = 5 independent experiments; read-out: IC50, inhibition of hGIP‐induced cAMP accumulation, human GIPR. On the procedure:
COS‐7 cells were cultured at 10% CO2 and 37°C in Dulbecco's Modified Eagle Medium 1885 supplemented with 10% foetal bovine serum, 2‐mM glutamine, 180‐units ml^−1 penicillin and […] streptomycin. Transient transfection of the cells with either human or mouse GIP receptor was performed using the calcium phosphate precipitation method as previously described (van der Velden et al., [2021]). A second set of cells was transiently transfected with either mouse GLP‐1 or GLP‐2 receptor. Following the day after transfection, the cells were seeded in white 96‐well plates with a density of 35.000 cells per well. The next day the assay was initiated by washing the cells with HEPES buffered saline (HBS) followed by an incubation step with HBS and 1‐mM 3‐isobutyl‐1‐methylxanthine for 30 min at 37°C. For agonist studies, the ligands were then added and incubated for an additional 30 min at 37°C. […] Luminescence was measured by PerkinElmer™ Envision 2014 Multilabel Reader. […]
Results are presented as mean ± SE. Data were analysed with one‐way and two‐way analysis of variance (ANOVA) with Tukey's or Sidak multiple comparisons test and Student's unpaired t tests where appropriate. […] For the in vitro data IC50 values were determined by nonlinear regression using GraphPad Prism 9 (San Diego, California, USA). […]
In general terms: cAMP levels reflect the balance of adenylyl cyclase and phosphodiesterase activity.

The test system of a further assay is Female C57Bl6/J mice. The assay is described as follows: Intraperitoneal glucose tolerance test, inhibition of exogenous GIP. It is filed as in vivo, mouse. On the procedure:
To assess the biological activity of mGIPAnt‐1, we performed an intraperitoneal glucose tolerance test. Mice were fasted for 4 h and given either mGIPAnt‐1 ([…]; s.c.) or vehicle at t = −90 min. Group sizes were as follows:‐ Vehicle + Vehicle, n = 10, Vehicle + GIP, n = 12 and mGIPAnt‐1 + GIP, n = 8. Varying group numbers were due to unsuccessful administration of one of the four compounds as confirmed by measurements of plasma concentrations. At t = −10 all mice were given an intraperitoneal (i.p.) injection with dipeptidyl peptidase‐4 (DPP‐4) inhibitor valine pyrrolidide followed by s.c. injection of either 25 nmol·kg^−1 GIP (Synthetic mouse GIP(1‐42) or vehicle. At t = 0 min, mice received an i.p. injection with 0.5‐g·kg^−1 glucose. Blood glucose was measured from the tail vein using a hand‐held glucometer (Accu‐Chek Mobile, Roche, Basel, Switzerland) at t = 0, 10, 30, 45, 60, 120 and 180 min. Retro‐orbital blood samples (50 μl) were taken using EDTA coated glass capillaries (Vitrex, Vasekær, Denmark) at t = 0, 15, 30 and 60, 120 and 180 min and centrifuged at 3500g, 20 min, 4°C. Plasma was transferred into Eppendorf tubes on dry ice and stored at −20°C for later insulin measurements.
To facilitate comparisons of assay outputs (cAMP assays), the results (of duplicate measurements) were normalized, with the response to 10 pM of GIP(1‐42) set as 100%. All ligand concentrations are reported as log‐transformed. The IC50 log values can be found in Figure 1. In Figure 3c, we have subtracted glucose levels from baseline to show the net differences in glucose levels in our different treatment groups.

In general, pIC50 refers to −log10 of the IC50, conventionally taken in molar units. As for `CC[C@H](C)[C@H](NC(=O)[C@H](CO)NC(=O)[C@H](Cc1ccc(O)cc1)NC(=O)[C@H](CC(=O)O)NC(=O)[C@H](CO)NC(=O)[C@@H](NC(=O)[C@H](Cc1ccccc1)NC(=O)[C@@H](NC(=O)CNC(=O)[C@@H](N)CCC(=O)O)[C@@H](C)O)[C@@H](C)CC)C(=O)N[C@@H](C)C(=O)N[C@@H](CCSC)C(=O)N[C@@H](CC(=O)O)C(=O)N[C@@H](CCCCN)C(=O)N[C@H](C(=O)N[C@@H](CCCCNC(=O)CCCCCCCCCCCCCCC(=O)O)C(=O)N[C@@H](CCC(N)=O)C(=O)N[C@@H](CCC(N)=O)C(=O)N[C@@H](CC(=O)O)C(=O)N[C@@H](Cc1ccccc1)C(=O)N[C@H](C(=O)N[C@@H](CC(N)=O)C(=O)N[C@@H](Cc1c[nH]c2ccccc12)C(=O)N[C@@H](CC(C)C)C(=O)N[C@@H](CC(C)C)C(=O)N[C@@H](C)C(=O)N[C@@H](CCC(N)=O)C(=O)N[C@@H](CCCCN)C(=O)NCC(=O)N[C@@H](CCCCN)C(=O)N[C@@H](CCCCN)C(=O)N[C@@H](CC(N)=O)C(=O)N[C@@H](CC(=O)O)C(=O)N[C@@H](Cc1c[nH]c2ccccc12)C(=O)N[C@@H](CCCCN)C(=O)N[C@@H](Cc1c[nH]cn1)C(=O)N[C@@H](CC(N)=O)C(=O)O)C(C)C)[C@@H](C)CC` [mGIPAnt‐1] (H-EGTFISDYSIAMDKIK(C16 diacid)QQDFVNWLLAQKGKKNDWKHN-OH), the negative logarithm of the IC50 (pIC50) on human GIP receptor is 7.96. In addition, the “fasting (baseline) blood glucose at t = 0 of IPGTT” value in the assay on Female C57Bl6/J mice (mGIPAnt‐1 25 μmol·kg−1 s.c. at t = −90 min, 4 h fasted mice, versus the other two groups) is “significant decrease in fasting blood glucose levels”. Further, in the assay with Female C57Bl6/J mice (mGIPAnt‐1 25 μmol·kg−1 s.c. t = −90 min, GIP 25 nmol·kg−1 s.c. and val‐pyr t = −10 min, glucose 0.5 g·kg−1 i.p., n = 8–12), the “baseline‐subtracted glucose curve during IPGTT” value is given as “did not differ”. The “glucose levels relative to baseline late in IPGTT” value with Female C57Bl6/J mice (t = 120 and 180 min, same dosing as glucose curve) was “glucose levels do not drop below baseline”.
